Read-outs that look alike come from different tables or passages of the source. Marks after values point to notes of the source that are not given here.
How the values were obtained:
[1] = tested on: HIV-1 protease and reverse transcriptase; assay: Development of resistance (genotype/phenotype testing, PhenoSense GT); conditions: two patients (one treatment-experienced, one treatment-naïve) receiving emtricitabine
[2] = Pharmacokinetic substudy (intensive sampling, non-compartmental analysis); conditions: steady state, plasma, substudy n = 60, darunavir 800 mg + cobicistat 150 mg once daily plus N[t]RTIs
Description: The pharmacokinetic substudy included intensive pharmacokinetic sampling over 24 hours and was performed in a subset of patients (target n =48 evaluable) at selected study sites.
For the whole study population, sparse blood samples for analysis of study drug plasma concentrations were collected over 24 hours at Weeks 2, 4, 8, 12, 16, 24, 36 and 48. For the pharmacokinetic substudy, plasma samples were collected predose, 1, 2, 3, 3.5, 4, 4.5, 5, 6, 8, 10, 12 and 24 hours post-dose at a visit between Weeks 2 and 8.
For the pharmacokinetic substudy, steady-state pharmacokinetic parameters (Cmax, Cmin and AUC24h) were obtained using non-compartmental analysis (WinNonlin® software version 6.2, Pharsight Corporation, Mountain View, CA, USA). The intensive pharmacokinetic substudy data was used to revise an existing 2-compartment population pharmacokinetic model with first-order absorption.

[3] = Population pharmacokinetics of darunavir (Bayesian feedback analysis); conditions: human, in vivo; for AUC(0-t): read-out: Population pharmacokinetic-derived AUC24h, mean (SD)
[4] = tested on: wild-type virus; conditions: cited from earlier work
[5] = HIV-1-infected patients; cited from earlier work
[6] = tested on: HIV; conditions: cited from earlier work
[7] = tested on: CYP isozymes; conditions: cited from earlier work
[8] = tested on: plasma HIV-1 RNA (viral load); conditions: treatment-naïve patients in ARTEMIS, TLOVR, ITT analysis; cited from earlier work

## Nc1nc(=O)n([C@@H]2CS[C@H](CO)O2)cc1F [Emtricitabine, emtricitabine]
[1]
  Phenotypic resistance associated with emerging M184V N[t]RTI RAM: associated with phenotypic resistance

## CC(C)CN(C[C@@H](O)[C@H](Cc1ccccc1)NC(=O)O[C@H]1CO[C@H]2OCC[C@H]21)S(=O)(=O)c1ccc(N)cc1 [Darunavir, darunavir]
[2]
  Ctau [mean (SD)]: 1311 (969)* ng/ml
[3]; 17 treatment-experienced patients, with cobicistat
  AUC(0-t): 120 µg·h/mL
[3]; 17 treatment-experienced patients, with cobicistat, read-out: Population pharmacokinetic-derived C0h, mean (SD)
  concentration at 0 h: 2920 ng/mL
[3]; 281 treatment-naïve patients, with cobicistat
  AUC(0-t): 101 µg·h/mL
[3]; 281 treatment-naïve patients, with cobicistat, read-out: Population pharmacokinetic-derived C0h, mean (SD)
  concentration at 0 h: 2100 ng/mL
[3]; Week 48, overall n = 298, with cobicistat
  AUC(0-t): 102 µg·h/mL
[3]; Week 48, overall n = 298, with cobicistat, read-out: Population pharmacokinetic-derived trough plasma concentration (C0h), mean (SD)
  concentration at 0 h: 2150 ng/mL
[4]
  protein-binding adjusted 50% effective concentration: 55 ng/mL

## CC(C)c1nc(CN(C)C(=O)N[C@@H](CCN2CCOCC2)C(=O)N[C@H](CC[C@H](Cc2ccccc2)NC(=O)OCc2cncs2)Cc2ccccc2)cs1 [Cobicistat, cobicistat]
[5]
  AUCtau, historical data: 8.3 µg·h/mL
  Cmax, historical data: 1100 ng/mL
[6]
  Antiviral activity: no antiviral activity
[7]
  Induction of CYP isozymes: does not induce CYP isozymes

## Nc1ccn([C@@H]2CS[C@H](CO)O2)c(=O)n1 [lamivudine]
[1]
  Phenotypic resistance associated with emerging M184V N[t]RTI RAM: associated with phenotypic resistance

## darunavir/ritonavir
[8]
  Week 48 virologic response rate: 84%

Source: article PMC4413526 (AIDS Research and Therapy, 2014)
